Measured values taken from US20070191311A1, “P2x receptor inhibitor” (priority 2004, published 2007).

Assays:
[1] = in vivo; cited from earlier work
rat type P2X2/3 receptor = biological target: T1, rat type P2X2/3 receptor (Rattus norvegicus, UniProt P49653+P49654); assay: P2X2/3 receptor inhibitory activity ([14C]-guanidine uptake stimulated by αβ-me ATP in CHO cells); format: cell-based; settings: for IC50: CHO cell expressing rat type P2X2/3 receptor, 4 μM αβ-me ATP, [14C]-guanidine, 15 minutes room temperature, read-out: IC50 (concentration which inhibits 50% of the function of P2X2/3 receptor); for P2X2/3,3 receptor inhibitory activity (in words): Table 1
T1 construct: expressed in transfected cells; host or cells: CHO cells (selected with G-418)
T1 sequence (P49653 1-472): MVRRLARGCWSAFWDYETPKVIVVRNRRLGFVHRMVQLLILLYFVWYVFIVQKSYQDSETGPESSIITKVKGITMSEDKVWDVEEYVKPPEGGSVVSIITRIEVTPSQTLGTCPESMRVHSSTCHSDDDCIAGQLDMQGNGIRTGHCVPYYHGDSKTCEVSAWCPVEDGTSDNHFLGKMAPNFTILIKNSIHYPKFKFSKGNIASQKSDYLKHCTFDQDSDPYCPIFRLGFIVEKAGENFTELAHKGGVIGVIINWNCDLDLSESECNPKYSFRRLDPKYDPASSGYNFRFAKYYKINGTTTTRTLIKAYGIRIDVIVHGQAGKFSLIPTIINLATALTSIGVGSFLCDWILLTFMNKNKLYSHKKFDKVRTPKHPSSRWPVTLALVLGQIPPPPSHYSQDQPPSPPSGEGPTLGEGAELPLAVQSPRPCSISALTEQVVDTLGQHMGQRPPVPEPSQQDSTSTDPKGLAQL
T1 sequence (P49654 1-397): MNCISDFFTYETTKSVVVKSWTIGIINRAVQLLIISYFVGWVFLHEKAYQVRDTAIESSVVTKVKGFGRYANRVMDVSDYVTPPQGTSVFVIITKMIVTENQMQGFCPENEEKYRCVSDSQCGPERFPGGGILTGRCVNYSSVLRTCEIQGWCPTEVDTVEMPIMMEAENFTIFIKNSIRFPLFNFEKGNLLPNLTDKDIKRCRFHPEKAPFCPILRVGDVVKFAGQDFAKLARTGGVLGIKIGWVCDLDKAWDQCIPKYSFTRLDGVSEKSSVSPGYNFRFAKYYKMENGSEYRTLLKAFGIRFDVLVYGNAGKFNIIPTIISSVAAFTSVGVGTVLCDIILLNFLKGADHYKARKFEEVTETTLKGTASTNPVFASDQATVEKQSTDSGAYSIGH
Experimental: On the day before the test, the resulting cells were inoculated onto a 96-well culture plate at a density of about 6×10^4 cells/well and cultured for 24 hours in the medium containing 2 units/ml of apyrase 2.

mice [2] = assay: Acetic acid induced pain behavior (writhing); format: in vivo
Experimental: This test was carried out with reference to the method described in Pain, 96, p. […] After 30 minutes thereof, 0.6% acetic acid was intraperitoneally administered (10 ml/kg). Frequency of writhing (a body writhing behavior) occurred within a period of 15 minutes, starting from 2 minutes after the acetic acid administration until 17 minutes thereafter, was measured. The test was carried out twice as the test 1 and test 2. Test on the statistical significant difference between the solvent administration group used as a control group and the test substance administration group was carried out using the Dunnett method.

[3] = test system: patients of bone metastasis of breast cancer and bone metastasis of lung cancer; assay: Clinical test in patients of bone metastasis of breast cancer and lung cancer; format: in vivo, human; settings: 1 or 2 mg once in 2 weeks for 12 weeks; from the initial evaluation time (1st week)
mice [4] = assay: αβ-me ATP induced pain behavior; format: in vivo; settings: for αβ-me ATP induced pain behavior (total time of lifting and licking): 30 minutes before αβ-me ATP, significant difference to control
Experimental: 16 (2000). […] Total time of lifting (a behavior of lifting the administered side sole from the floor face) and licking (a behavior of licking and biting the administered side sole) occurred during 5 minutes just after the administration of αβ-me ATP was measured. […] Test on the statistical significant difference between the solvent administration group used as a control group and the test substance administration group was carried out using the Dunnett method.

cancer patients = settings: clinical test; cited from earlier work
rat cancer pain model = settings: continuously administered for 19 days; cited from earlier work
[5] = test system: patients of multiple myeloma; settings: oral 6 mg once a day; 24 weeks; cited from earlier work
mouse = assay: Formalin induced pain behavior; format: in vivo
Experimental: The test substance or solvent was subcutaneously administered to each mouse at a volume of 10 ml/kg. After 30 minutes thereof, formalin was administered under the skin of one sole (2.0%, 20 μl/body). Total time of lifting (a behavior of lifting the administered side sole from the floor face) and licking (a behavior of licking and biting the administered side sole) occurred during every 5 minutes was measured over 30 minutes starting just after the administration of formalin. By defining the period of from 0 to 5 minutes after the formalin administration as a phase I (Phase I), and that of from 10 to 30 minutes as a phase II (Phase II), the total time of lifting and licking occurred in each phase was calculated.

In the case of O=P(O)(O)C(Cl)(Cl)P(=O)(O)O [clodronate], the “analgesic action in the tail-flick test” value [1] is listed as “dose-dependent analgesic action”, the IC50 (rat type P2X2/3 receptor) is listed as over 300 µM and the “P2X2/3,3 receptor inhibitory activity (in words)” value (rat type P2X2/3 receptor) is listed as “did not show the P2X2/3,3 receptor inhibitory activity”.
For O=P(O)(O)C(O)(Cc1cnc2ccccn12)P(=O)(O)O [minodronic acid, 1-hydroxy-2-(imidazo[1,2-a]pyridin-3-yl)ethane-1,1-bisphosphonic acid], the “behavioral side effect at the time of the pain behavior observation” value (from here on “behavioral side effect at the time”) (mice [2]; acetic acid test) was “not observed”, the “writhing behavior (acetic acid induced)” value (mice [2]; s.c., 10 and 30 mg/kg, 0.6% acetic acid i.p.) was “dose-dependently suppressed” and the “pain value (bone pain) in patients” value [3] was “reducing tendency of pain value was observed”. For the same compound, the “αβ-me ATP induced pain behavior (total time of lifting and licking)” value (mice [4]; 30 mg/kg i.p.) was “suppressed”, the “αβ-me ATP induced pain behavior (total time of lifting and licking)” value (mice [4]; 10 to 50 mg/kg s.c.) was “suppressed” and the “behavioral side effect at the time” value (mice [4]; αβ-me ATP test) was “not observed”. For the same compound, the “P2X2/3,3 receptor inhibitory activity (in words)” value (rat type P2X2/3 receptor) was “good receptor inhibitory activity”.
In the case of Cc1ccc(C(=O)Nc2ccc(S(=O)(=O)O)c3cc(S(=O)(=O)O)cc(S(=O)(=O)O)c23)cc1NC(=O)c1cccc(NC(=O)Nc2cccc(C(=O)Nc3cc(C(=O)Nc4ccc(S(=O)(=O)O)c5cc(S(=O)(=O)O)cc(S(=O)(=O)O)c45)ccc3C)c2)c1 [suramin], the “pain score in cancer patients” value (cancer patients) is given as “reduction of pain score was observed” and the IC50 (rat type P2X2/3 receptor) is given as 194 µM.
For NCCC(O)(P(=O)(O)O)P(=O)(O)O [pamidronate], the “analgesic action in the tail-flick test” value [1] is listed as “dose-dependent analgesic action”, the IC50 (rat type P2X2/3 receptor) is listed as over 300 µM and the “P2X2/3,3 receptor inhibitory activity (in words)” value (rat type P2X2/3 receptor) is listed as “did not show the P2X2/3,3 receptor inhibitory activity”.
In the case of O=P(O)(O)C(O)(Cn1ccnc1)P(=O)(O)O [zoledronate], the “mechanical allodynia and mechanical hyperalgesia accompanied by cancer pain” value (rat cancer pain model) is listed as “inhibit”, the IC50 (rat type P2X2/3 receptor) is listed as over 300 µM and the “P2X2/3,3 receptor inhibitory activity (in words)” value (rat type P2X2/3 receptor) is listed as “did not show the P2X2/3,3 receptor inhibitory activity”.
trinitrophenyl (TNP)-ATP [TNP-ATP] showed an IC50 (rat type P2X2/3 receptor) of 0.18 µM.
In the case of O=P(O)(O)C(O)(Cc1cnc2ccccn12)P(=O)(O)O [minodronic acid hydrate], the “bone pain in multiple myeloma patients” value [5] is given as “improved”, the “used amount of an analgesic in multiple myeloma patients” value [5] is given as “reduced” and the “formalin induced pain behavior, Phase I (0 to 5 minutes)” value (mouse; 30 mg/kg s.c.) is given as “did not exert influence”. For the same compound, the “formalin induced pain behavior, Phase II (10 to 30 minutes)” value (mouse; 30 mg/kg s.c.) was “suppressed” and the “behavioral side effect at the time” value (mouse; formalin test) was “not observed”.
